Test results from publication PMC7759686, “Pharmacokinetics and Immunological Effects of Romidepsin in Rhesus Macaques” (Frontiers in Immunology, 2020).
“And” between values parts separate entries of the source, which are not always exact repeats. Identical values can stand only once.

Columns and labels:
[1] = tested on: CD4+ and CD8+ T cells of PBMCs; test: In vitro RMD impact on homing markers of PBMCs; format: cell-based, rhesus macaques; conditions: for CCR5 expression on CD8+ T cells: untreated 7%; for CCR4 expression on CD8+ T cells: baseline 6%, untreated 29%; for α4β7 expression on CD8+ T cells: baseline 7%; for CCR9 expression on CD4+ T cells: baseline 2%; for CCR9 expression on CD4+ T cells / CCR9 expression on CD8+ T cells: untreated 3%
Description: To assess the RMD impact on the expression of cellular and homing markers, fresh PBMCs collected from 3 SIV-naïve RMs were subjected to either no RMD treatment or escalating doses of RMD (2, 10, and 20 ng/ml). The PBMCs were incubated with RMD in RPMI1640 supplemented with 1% Penicillin/Streptomycin, 1% HEPES buffer, 1% L-glutamine, and 5% heat-inactivated bovine calf serum for 0, 1, 2, or 5 days. PBMCs were then stained with CD3-V500, CD4-Alexa Flour 700 (L200), CD8-PE-CF594, CCR4-PE-Cy7 (1G1), CCR5-APC (3AP), CCR7-PE (3D12), CCR9-FITC (112509) (R&D Systems, Minneapolis, MN, USA), β7-PE-Cy5 (FIB504), and LIVE/DEAD Fixable Blue Dead Cell Stain Kit (Thermo Fisher Scientific); all antibodies were from BD Biosciences unless otherwise noted. Stained PBMCs were acquired on a LSR-II and data were analyzed with FlowJo software (TreeStar).

[2] = tested on: peripheral CD4+ and CD8+ T cells; test: Apoptosis and activation of peripheral T cells (whole blood flow cytometry); format: in vivo, rhesus macaques (Macaca mulatta); conditions: n = 3
Description: Whole blood was stained to monitor the impact of RMD on the immune cell populations. TruCount was used to determine absolute counts of CD3^+, CD4^+, CD8^+ T cells and CD20^+ B cells as described ([51]–[53]). Fifty microliters of whole blood were stained with antibodies against CD3-V450, CD4-APC, CD20-APC-H7, and CD45-PerCP in TruCount tubes (BD Biosciences, Franklin Lakes, NJ, USA) with a set number of fluorescent beads as internal standards. CD8^+ T cell counts were assessed through the ratio of CD8^+ to CD3^+ T cells. Whole blood was also stained with combinations of the following fluorescently labeled antibodies: CD3-V450 (SP34-2), CD4-APC (L200), CD8-PE-CF594 (RPA-T8), CD14-PE-Cy7 (M5E2), CD38-FITC (AT-1) (Stemcell, Vancouver, BC, CA), CD20-APC-H7 (2H7), CD69-APC-Cy7 (FN50), CD95-FITC (DX2), CCR5-PE (3A9), Annexin V-FITC, HLA-DR-PE-Cy7 (L243), NKG2A-PE (Z199) (Beckman Coulter, Pasadena, CA), Strepavidin-Alexa Fluor 750 (Life Technologies, Carlsbad, CA), Biotin-CCR7 (eBioscience, San Diego, CA), LIVE/DEAD Fixable Blue Dead Cell Stain Kit (Thermo Fisher Scientific); all antibodies were from BD Biosciences unless otherwise noted. For Ki-67-PE (B56) intracellular staining, cells were fixed and permeabilized prior to Ki-67 staining. Data were acquired with a LSR-II flow cytometer (BD Biosciences) or Fortessa flow cytometer (BD Biosciences) and analyzed with FlowJo software 10.7.0 (Treestar, Ashland, OR), as described ([51], [54]).

[3] = Cortisol ELISA in plasma; format: in vivo, rhesus macaques (Macaca mulatta); conditions: RMD-infused RMs vs saline controls (peak 6 h, decreasing from day 1); n = 3 per group
Excerpt: Cortisol ELISA. To assess the levels of stress associated with the different animal procedures used, frozen plasma was thawed, and dilutions of either 1:16 to 1:50 were used to measure the circulating cortisol levels with a cortisol ELISA kit (ENZO, Farmingdale, NY, USA), as per manufacturer instructions. The results were read at 405 nm on a Ultrospec 2100 Pro (Amersham Biosciences, Little Chalfont, UK) and results interpolated by Prism 8.4.3 (GraphPad Software, Inc., San Diego, CA) using 4 parameter logistic curve fitting.

[4] = RMD pharmacokinetics in plasma and tissues (LC-MS/MS); conditions: 7 mg/m^2 4-h IV infusion; for RMD plasma concentration at 2 h postinfusion: second round
[5] = tested on: HIV; conditions: cited from earlier work
Excerpt: Because we measured the prodrug form of RMD, it is possible that the maintained concentrations are due to either greater distribution to the tissue compartments, reduced conversion of the RMD to the active, reduced form, trapping of RMD between the extracellular and interstitial spaces, or a combination of these. As ...

[6] = kel from mean concentration-time profile of 3 RMs

SMILES: C/C=C1\NC(=O)[C@H]2CSSCC/C=C/[C@H](CC(=O)N[C@H](C(C)C)C(=O)N2)OC(=O)[C@H](C(C)C)NC1=O [RMD, romidepsin]
- CCR5 expression on CD4+ T cells ([1]; 2 ng/ml RMD, day 5, baseline 3%, untreated 2%, p > 0.05): 1%
- CCR5 expression on CD8+ T cells ([1]; 2 ng/ml RMD, day 5, baseline 4%, p > 0.05): 59%
- CCR4 expression on CD8+ T cells ([1]; 2 ng/ml RMD, day 5, p > 0.05): 73%
- α4β7 expression on CD8+ T cells ([1]; 2 ng/ml RMD, day 5, p > 0.05): 59%
- CCR7 expression on CD8+ T cells ([1]; 10 ng/ml RMD, day 1 (peak), baseline 3%): 6%
- α4β7 expression on CD4+ T cells ([1]; 10 ng/ml RMD, day 1, baseline 8%): 9%
- α4β7 expression on CD4+ T cells ([1]; 10 ng/ml RMD, day 2, baseline 8%): 16%
- CCR9 expression on CD4+ T cells ([1]; 10 ng/ml RMD, day 5 (peak), p > 0.05): 14%
- CCR5 expression on CD4+ T cells ([1]; 10 ng/ml RMD, day 5, baseline 3%, untreated 2%, p > 0.05): < 1%
- CCR9 expression on CD8+ T cells ([1]; 10 ng/ml RMD, day 5, baseline 4%, p > 0.05): 8%
- CCR5 expression on CD8+ T cells ([1]; 10 ng/ml RMD, day 5, baseline 4%, p < 0.05): 93%
- CCR4 expression on CD8+ T cells ([1]; 10 ng/ml RMD, day 5, p < 0.05): 93%
- α4β7 expression on CD8+ T cells ([1]; 10 ng/ml RMD, day 5, p < 0.05): 95%
- α4β7 expression on CD4+ T cells ([1]; 10 ng/ml RMD, day 5, untreated 7.5%): 2%
- CCR7 expression on CD8+ T cells ([1]; 20 ng/ml RMD, day 1 (peak), baseline 3%): 6.2%
- α4β7 expression on CD4+ T cells ([1]; 20 ng/ml RMD, day 1, baseline 8%): 10%
- α4β7 expression on CD4+ T cells ([1]; 20 ng/ml RMD, day 2, baseline 8%): 15%
- CCR9 expression on CD4+ T cells ([1]; 20 ng/ml RMD, day 5 (peak), p > 0.05): 13%
- CCR7 expression on CD4+ T cells ([1]; 20 ng/ml RMD, day 5 (peak), baseline 4%, untreated 2%, p > 0.05): 9%
- CCR5 expression on CD4+ T cells ([1]; 20 ng/ml RMD, day 5, baseline 3%, untreated 2%, p > 0.05): < 1%
- CCR9 expression on CD8+ T cells ([1]; 20 ng/ml RMD, day 5, baseline 4%, p > 0.05): 10%
- CCR5 expression on CD8+ T cells ([1]; 20 ng/ml RMD, day 5, baseline 4%, p < 0.05): 90%
- CCR4 expression on CD8+ T cells ([1]; 20 ng/ml RMD, day 5, p < 0.05): 90%
- α4β7 expression on CD8+ T cells ([1]; 20 ng/ml RMD, day 5, p < 0.05): 91%
- CCR7 expression on CD8+ T cells ([1]; 20 ng/ml RMD, day 5, untreated 2%): 5%
- α4β7 expression on CD4+ T cells ([1]; 20 ng/ml RMD, day 5, untreated 7.5%): 3%
- CCR4 expression on CD4+ T cells ([1]; 2, 10, 20 ng/ml RMD, up to day 5): mostly unchanged
- frequency of apoptotic CD8+ T cells ([2]; 2 days postinfusion, baseline 2.1%, Annexin V and Live/Dead): 4.6%
- frequency of apoptotic CD4+ T cells ([2]; after RMD administration, baseline 3.7%, Annexin V and Live/Dead): 1.8%
- expression of T cell activation markers CD69 and Ki-67 on circulating CD4+ and CD8+ T cells ([2]; by 1 day postinfusion, not significant): increased
- plasma cortisol levels after infusion [3]: remained elevated through 2 dpi
- GI tract terminal half-life relative to plasma [4]: 1.8 fold
- LN terminal half-life relative to plasma [4]: seven-fold longer
- plasma concentration at 8 h postinfusion [4]: 5.16 nM
- time with quantifiable concentrations in GI tract ([4]; last sampling 10 days): 10 days postinfusion
- time with quantifiable concentrations in LNs ([4]; last sampling 10 days): 10 days postinfusion
- mean terminal half-life in plasma ([4]; 3 SIV-naïve RMs, kel from semi-log regression of individual plasma data, observations after 96 h omitted): 15.3 h
- RMD concentration in intestine at 4 h postinfusion ([4]; animal RM32): 354 ng/g
- RMD plasma concentration at 2 h postinfusion ([4]; animal RM32, LC-MS/MS): 47 ng/mL
- RMD concentration in intestine at 4 h postinfusion ([4]; animal RM33): 3,932 ng/g
- RMD plasma concentration at 2 h postinfusion ([4]; animal RM33, LC-MS/MS): 7.7 ng/mL and 8 ng/mL
- RMD plasma concentration at 2 h postinfusion ([4]; animal RM71, LC-MS/MS): 4.7 ng/mL and 5 ng/mL
- plasma concentration at 2 h postinfusion ([4]; group value of 3 RMs): 19.9 ng/mL
- RMD concentration in LNs at 4 h postinfusion ([4]; individual values of 3 RMs, superficial LNs, tissue density 1.0 g/ml assumed, LC-MS/MS): 70 ng/mL and 75 ng/mL and 101 ng/mL
- mean terminal half-life in gastrointestinal tract [4, 6]: 28 h
- mean terminal half-life in lymph nodes [4, 6]: 110 h
- RMD concentration in GI tract at 4 h postinfusion, median ([4]; median of 3 RMs, intestinal biopsies, LC-MS/MS): 3,665 ng/g
- concentration found to readily reactivate HIV in vitro [5]: 5 nM
